Where two headings read alike, the source gives them in different places.

This is an account of results in publication doi:10.1101/2024.08.19.608619, “Discovery of potent SARS-CoV-2 nsp3 macrodomain inhibitors uncovers lack of translation to cellular antiviral response” (bioRxiv, 2024).

Assay [1] addresses T1, SARS-CoV-2 nsp3-mac1 (Severe acute respiratory syndrome coronavirus 2, UniProt P0DTD1). Put plainly: biochemical. Also on record: SARS-CoV-2 nsp3 macrodomain TR-FRET single point, per cent inhibition, n=2.
The target in assay [2] is T1, SARS-CoV-2 nsp3-mac1. The assay is described as follows: biochemical. The assay is classed as biochemical. As to conditions: SARS-CoV-2 nsp3 macrodomain TR-FRET single point. In general terms: Time-resolved FRET reads energy transfer from a long-lived donor to a nearby acceptor.
Setting [3] is: read-out: perc_inhibition_mean, batch_name=ASAP-0000449-001.
Where [4] appears, read: read-out: perc_inhibition_mean, batch_name=ASAP-0000264-001.
Where [5] appears, read: read-out: perc_inhibition_mean, batch_name=ASAP-0000061-002.
Setting [6] is: read-out: perc_inhibition_mean, batch_name=ASAP-0000353-001.
Where [7] appears, read: read-out: perc_inhibition_mean, batch_name=ASAP-0000400-001.
Setting [8] is: read-out: perc_inhibition_mean, batch_name=ASAP-0000462-001.
[9] abbreviates: read-out: perc_inhibition_mean, batch_name=ASAP-0000345-001.
[10] abbreviates: read-out: perc_inhibition_mean, batch_name=ASAP-0000410-001.
The mark [11] stands for this setting: read-out: perc_inhibition_mean, batch_name=ASAP-0000248-001.

As to `Fc1ccc(OC(F)F)c(CNc2cnc3[nH]ncc3c2)c1` [ASAP-0000015], in assay [1] (read-out: perc_inhibition_mean, batch_name=ASAP-0000015-002), the inhibition at 50 µM is -6.67%. For the same molecule, the perc_inhibition_mean in assay [2] (concentration 50.0 uM) is given as -6.672%.
For the molecule `Cn1nc(C(=O)N2CCC(c3ccn4ncc(C(=O)N5CCCCC5)c4c3)CC2)cc1C(=O)O` [ASAP-0000449], the inhibition at 49.75 µM in assay [1] (setting [3]) came to 42.7%. Also, the inhibition at 99.5 µM in assay [1] (setting [3]) stood at 59.7%. The perc_inhibition_mean stood at 42.655% in assay [2] (concentration 49.75 uM) and 59.743% in assay [2] (concentration 99.5 uM).
With `Cc1nc(NC(=O)c2nccc3ccncc23)c2cc[nH]c2n1` [ASAP-0000264], in assay [1] (setting [4]), the inhibition at 50 µM was -5.83% and the inhibition at 100 µM is 2.61%. Further, the perc_inhibition_mean in assay [2] (concentration 50.0 uM, n=2) was -5.834%. For the same molecule, the perc_inhibition_mean in assay [2] (concentration 100.0 uM, n=2) is on record as 2.611%.
Take `O=C(Nc1cnc2[nH]ncc2c1)c1ccncc1Cl` [ASAP-0000061]: the inhibition at 50 µM in assay [1] (read-out: perc_inhibition_mean, batch_name=ASAP-0000061-001) was -0.272%; in assay [1] (setting [5]), -2.75%. In assay [1] (setting [5]), the inhibition at 100 µM was 2.96%. Moreover, the perc_inhibition_mean in assay [2] (concentration 50.0 uM) was -0.272%; in assay [2] (concentration 50.0 uM, n=2) it was -2.752%; in assay [2] (concentration 100.0 uM, n=2), 2.961%.
In the case of `O=C(NC[C@@H]1CCCCN1)c1cnn2ccc(C3CCN(C(=O)c4ccccc4)CC3)cc12` [ASAP-0000353], in assay [1] (setting [6]), the inhibition at 49.75 µM is -5.92% and the inhibition at 99.5 µM is -2.57%. In addition, in assay [2] (concentration 49.75 uM), the perc_inhibition_mean is -5.92%. The perc_inhibition_mean in assay [2] (concentration 99.5 uM) is on record as -2.573%.
`Cc1cc(CNC(=O)c2cnn3ccc(C4CCN(C(=O)c5ccccc5)CC4)cc23)n(C)n1` [ASAP-0000400]: in assay [1] (setting [7]), the inhibition at 49.75 µM was -5.51% and the inhibition at 99.5 µM was -8.12%. In addition, the perc_inhibition_mean in assay [2] (concentration 49.75 uM) was -5.508%. For the same molecule, the perc_inhibition_mean in assay [2] (concentration 99.5 uM) is given as -8.125%.
As to `CC(C)[C@@H](Nc1ncnc2[nH]ccc12)C(N)=O` [ASAP-0000462], the inhibition at 49.75 µM in assay [1] (setting [8]) amounted to 64.4%. Also, in assay [1] (setting [8]), the inhibition at 99.5 µM was determined as 77.7%. The figures for the perc_inhibition_mean in assay [2] (concentration 49.75 uM) and in assay [2] (concentration 99.5 uM) were 64.403% and 77.698%, respectively.
As to `O=C(c1cnc[nH]1)N1CCC(c2ccn3ncc(C(=O)N4CCCCC4)c3c2)CC1` [ASAP-0000345], in assay [1] (setting [9]), the inhibition at 49.75 µM was 20.3% and the inhibition at 99.5 µM came out at 35.3%. Also, in assay [2] (concentration 49.75 uM, n=2), the perc_inhibition_mean turned out to be 20.282%. Further, in assay [2] (concentration 99.5 uM, n=2), the perc_inhibition_mean was determined as 35.337%.
For `CN1CCOc2cccc(NC(=O)Nc3cnc4[nH]ncc4c3)c21` [ASAP-0000035], in assay [1] (read-out: perc_inhibition_mean, batch_name=ASAP-0000035-001), the inhibition at 50 µM was -6.54%. The perc_inhibition_mean in assay [2] (concentration 50.0 uM) was -6.537%.
As to `CCc1nc(CN(C)c2nc(C)nc3[nH]ccc23)cs1` [ASAP-0000087], the inhibition at 50 µM in assay [1] (read-out: perc_inhibition_mean, batch_name=ASAP-0000087-001) is -6.13%. Also, the perc_inhibition_mean in assay [2] (concentration 50.0 uM) is -6.131%.
`CC(C)(c1noc(-c2ncnc3[nH]ccc23)n1)S(C)(=O)=O` [ASAP-0000033]: the inhibition at 50 µM in assay [1] (read-out: perc_inhibition_mean, batch_name=ASAP-0000033-001) is -0.756%. Moreover, in assay [2] (concentration 50.0 uM), the perc_inhibition_mean was -0.756%.
Turning to `C#Cc1cccc(NC(=O)CN(C)c2ncnc3[nH]ccc23)c1` [ASAP-0000024], the inhibition at 50 µM in assay [1] (read-out: perc_inhibition_mean, batch_name=ASAP-0000024-001) is 4.4%. Besides, the perc_inhibition_mean in assay [2] (concentration 50.0 uM) was 4.398%.
Consider `Fc1ccc(F)c(Sc2ncnc3[nH]ccc23)c1` [ASAP-0000049], for which, in assay [1] (read-out: perc_inhibition_mean, batch_name=ASAP-0000049-001), the inhibition at 50 µM is -1.15%. In addition, the perc_inhibition_mean in assay [2] (concentration 50.0 uM) is given as -1.149%.
In the case of `Cc1nsc(N(C)C(=O)c2cnn3ccc(C4CCN(C(=O)c5ccccc5)CC4)cc23)n1` [ASAP-0000410], in assay [1] (setting [10]), the inhibition at 49.75 µM is -10.5% and the inhibition at 99.5 µM was -11.5%. Besides, in assay [2] (concentration 49.75 uM), the perc_inhibition_mean was -10.512%. Besides, the perc_inhibition_mean in assay [2] (concentration 99.5 uM) was -11.519%.
Take `NS(=O)(=O)c1ccccc1CNc1ncnc2[nH]ccc12` [ASAP-0000130]: the inhibition at 50 µM in assay [1] (read-out: perc_inhibition_mean, batch_name=ASAP-0000130-001) was 3.66%. For the same molecule, the perc_inhibition_mean in assay [2] (concentration 50.0 uM) amounted to 3.656%.
`O=C(NCc1ccc(Cl)cn1)c1ncnc2[nH]ccc12` [ASAP-0000248]: in assay [1] (setting [11]), the inhibition at 50 µM was -4.96% and the inhibition at 100 µM is -2.57%. Moreover, in assay [2] (concentration 50.0 uM), the perc_inhibition_mean is on record as -4.958%. Besides, the perc_inhibition_mean in assay [2] (concentration 100.0 uM) is recorded as -2.568%.
